Reference: the OPERA property sets (Mansouri et al. 2018)

Details: for log10 BCF / log10 biotransformation half-life (days): fish

With `O=C1C[C@@H](c2ccc(O)cc2)Oc2cc(O)cc(O)c21` the melting point was 251 °C.
For `C#C[C@]1(O)CC[C@H]2[C@@H]3CCC4=CCCC[C@@H]4[C@H]3C(=C)C[C@@]21CC`, the melting point was 110 °C.
For `CCOCn1c(-c2ccc(Cl)cc2)c(C#N)c(Br)c1C(F)(F)F`, the melting point was 100 °C.
Work on `Cc1ccc2nc3c(ccc4ccccc43)c(C)c2c1` yielded a melting point of 159 °C.
In the case of `CC1(C)CO1`, the boiling point was 52 °C.
With `CCCCCCCCCCBr` the boiling point was 241 °C, the log10 vapour pressure (mmHg) was -1.4 and the melting point was -29.2 °C.
In the case of `O=C[C@H](O)[C@@H](O)[C@@H](O)[C@H](O)C(=O)O`, the melting point was 166 °C.
For `CCCCCCCCCCCCCCCC=O`, the melting point was 35 °C.
`CCCCCCCC/C=C\CCCCCCCC#N` showed a melting point of -1 °C.
`O=C(O)C(Cl)Cl` gave a boiling point of 194 °C, a log10 Henry constant (atm·m³/mol) of -8.08 and a log10 vapour pressure (mmHg) of -0.748. For the same molecule, the melting point was 13.5 °C and the ready biodegradability was “readily biodegradable”.
In the case of `Cc1coc2ccccc12`, the boiling point was 197 °C.
For `O=C1C(O)=C(Cl)C(=O)c2ccccc21`, the melting point was 216 °C.
In the case of `NC(=S)NS(=O)(=O)c1ccc(N)cc1`, the melting point was 182 °C.
For `CCCCCCCCOC(=O)c1cc(O)c(O)c(O)c1`, the melting point was 102 °C.
Molecule `C=CC(C)=CC` has a boiling point of 77 °C.
For `CC(C)(C)NCCO`, the boiling point was 176 °C, the melting point was 44 °C and the ready biodegradability was “not readily biodegradable”.
In the case of `CC(=O)NBr`, the melting point was 104 °C.
With `Brc1cc(Br)c(-c2ccccc2)c(Br)c1` the log10 BCF was 3.87 and the log10 biotransformation half-life (days) was 1.25.
Work on `CCCCCOC` yielded a boiling point of 99 °C.
With `C=CCCCCCCCCCCC` the boiling point was 233 °C, the log10 vapour pressure (mmHg) was -1.2 and the melting point was -13 °C. The log10 biotransformation half-life (days) was 0.73.
For `COC(C)(C)OC`, the boiling point was 83 °C, the log10 vapour pressure (mmHg) was 2.01 and the melting point was -47 °C.
For `Cc1cc(C)c(N)c(Cl)c1`, the ready biodegradability was “not readily biodegradable”.
For `CCCC(C)CBr` (stereo not drawn), the boiling point was 141 °C.
Molecule `CCC(O)C(Cl)(Cl)Cl` (stereo not drawn) has a boiling point of 171 °C.
Work on `CC(=O)Oc1ccccc1[N+](=O)[O-]` yielded a log10 vapour pressure (mmHg) of -2.66 and a melting point of 40.5 °C.
Molecule `O=C(O)C(=O)c1ccccc1` has a melting point of 66 °C.
`FC(F)OC(Cl)C(F)(F)F` (stereo not drawn) showed a boiling point of 48.5 °C, a log10 Henry constant (atm·m³/mol) of -1.54 and a melting point of 48.5 °C.
For `C[C@H](N)[C@H](O)c1cccc(O)c1`, the boiling point was 218 °C and the melting point was 108 °C.
With `Nc1c(I)cc(I)c(C(=O)N(CCC(=O)O)c2ccccc2)c1I` the melting point was 134 °C.
In the case of `COC(=O)C1(S(=O)(=O)c2ccccc2)CCCC1`, the melting point was 56.5 °C.
In the case of `CCCc1cc(=O)[nH]c(=S)[nH]1`, the melting point was 219 °C and the ready biodegradability was “not readily biodegradable”.
For `COCC(C)=O`, the boiling point was 116 °C.
For `CC1CCCC(O)C1` (stereo not drawn), the boiling point was 163 °C, the log10 Henry constant (atm·m³/mol) was -5.44 and the log10 vapour pressure (mmHg) was -0.32.
For `Cc1cc(C)c2cc(C)ccc2c1`, the melting point was 12 °C.
In the case of `CCCCCCCCCCCCOc1ccc(C(=O)O)cc1`, the melting point was 95 °C.
For `CCOC(=O)C(C)(C)O`, the boiling point was 150 °C.
With `CCSC(C)C` the boiling point was 108 °C and the melting point was -122 °C.
`O=C(c1ccccc1)c1c(F)c(F)c(F)c(F)c1F` gave a melting point of 37 °C.
In the case of `Clc1cc(Cl)cc(-c2cc(Cl)c(Cl)c(Cl)c2Cl)c1`, the log10 Henry constant (atm·m³/mol) was -4.7.
With `Nc1cccc2cc3ccccc3cc12` the melting point was 116 °C.
Work on `O=C(O)CCCCCCCCCCCC(=O)O` yielded a melting point of 111 °C.
`O=C1OC(=O)c2c(Br)c(Br)c(Br)c(Br)c21` gave a melting point of 275 °C.
In the case of `FC(F)=C(Cl)Cl`, the boiling point was 19 °C and the melting point was -116 °C.
For `Cc1ccccc1N=Nc1c(N)ccc2ccccc12`, the melting point was 126 °C.
For `Cc1ccc(C)c(Cl)c1`, the boiling point was 187 °C, the melting point was 1.6 °C and the ready biodegradability was “not readily biodegradable”.
In the case of `COc1cccc([N+](=O)[O-])c1C`, the melting point was 55 °C.
`c1ccc(Oc2ccccc2)cc1` showed a boiling point of 258 °C, a log10 Koc (L/kg) of 3.29 and a log10 vapour pressure (mmHg) of -1.65. The melting point was 26.8 °C, the ready biodegradability was “readily biodegradable” and the log10 BCF was 2.5. For the same molecule, the log10 biotransformation half-life (days) was -0.09.
In the case of `CCCC=Cc1ccccc1`, the boiling point was 217 °C.
Work on `CC(C)(C)N=C=O` yielded a melting point of 85.5 °C.
With `O=P(OCC(Br)CBr)(OCC(Br)CBr)OCC(Br)CBr` (stereo not drawn) the melting point was 5.5 °C, the ready biodegradability was “readily biodegradable” and the log10 BCF was 0.51.
For `CCCC(C)(C)C`, the boiling point was 79.2 °C, the log10 biodegradation half-life (days) was 0.845 and the log10 vapour pressure (mmHg) was 2.02. For the same molecule, the melting point was -124 °C.
`CC1COc2ccccc2N1C(=O)C(Cl)Cl` (stereo not drawn) gave a log10 vapour pressure (mmHg) of -5.35 and a melting point of 108 °C.
With `Cc1cccc(Cl)c1O` the boiling point was 189 °C.
`O=C(NC(=O)c1c(F)cccc1F)Nc1cc(Cl)c(OC(F)(F)C(F)C(F)(F)F)cc1Cl` (stereo not drawn) showed a melting point of 166 °C.
Work on `c1ccc2c(c1)CCc1ccccc1N2C1CN2CCC1CC2` (stereo not drawn) yielded a melting point of 150 °C.
With `N#CC#CC#N` the melting point was 20.5 °C.
`CCc1cccc(C)c1N(C(=O)CCl)C(C)COC` (stereo not drawn) showed a log10 Henry constant (atm·m³/mol) of -8.05, a log10 Koc (L/kg) of 2.46 and a log10 vapour pressure (mmHg) of -4.5. For the same molecule, the melting point was -51 °C.
With `Cc1ccc(Cl)c(Cl)c1Cl` the boiling point was 244 °C and the melting point was 43.5 °C.
`CC(=O)OCC1CCCO1` (stereo not drawn) gave a boiling point of 193 °C.
For `C1CC1`, the boiling point was -32.8 °C, the log10 vapour pressure (mmHg) was 3.73 and the melting point was -127 °C.
Molecule `O=COCCOC=O` has a boiling point of 174 °C.
`Cc1cccc(NC(=O)c2ccccc2)c1` showed a melting point of 125 °C.
Molecule `CC[C@H](C)C(=O)O[C@H]1CCC=C2C=C[C@H](C)[C@H](CC[C@@H]3C[C@@H](O)CC(=O)O3)[C@H]21` has a melting point of 152 °C.
Molecule `COc1ccccc1-c1ccccc1` has a boiling point of 274 °C and a melting point of 29 °C.
For `O=C1Nc2ccc(Cl)cc2C(c2ccccc2Cl)=NC1O` (stereo not drawn), the melting point was 167 °C.
In the case of `CCCCCC(O)c1ccc(O)c(O)c1` (stereo not drawn), the melting point was 109 °C.
Work on `COc1cc(NCc2ccc3nc(N)nc(N)c3c2C)cc(OC)c1OC` yielded a melting point of 216 °C.
`CCNS(=O)(=O)C(F)(F)C(F)(F)C(F)(F)C(F)(F)C(F)(F)C(F)(F)C(F)(F)C(F)(F)F` showed a boiling point of 196 °C, a log10 vapour pressure (mmHg) of -6.37 and a melting point of 96 °C.
Molecule `O=C(Cc1c(Cl)ccc(Cl)c1Cl)[O][Na]` has a log10 Koc (L/kg) of 1.72.
For `CC(=O)CCC=C(C)C`, the boiling point was 174 °C, the melting point was -67.1 °C and the ready biodegradability was “readily biodegradable”.
In the case of `OC1c2ccccc2CCc2ccccc21`, the melting point was 92 °C.
`CC(C)c1ccc2c(c1)CC[C@H]1[C@](C)(C(=O)O)CCC[C@]21C` showed a log10 BCF of 2.12.
Work on `CC(=O)NCCSC(C)=O` yielded a melting point of 32.5 °C.
With `O=c1ccoc2ccccc12` the melting point was 59 °C.
Work on `COc1cccc(C)c1C` yielded a boiling point of 199 °C and a melting point of 29 °C.
`Nc1cc([N+](=O)[O-])ccc1O` gave a melting point of 144 °C.
In the case of `CCC(Cl)CCl` (stereo not drawn), the boiling point was 124 °C and the log10 vapour pressure (mmHg) was 1.32.
In the case of `COc1cc(CCN)cc(OC)c1OC`, the melting point was 35.5 °C.
Molecule `NC(=O)NCc1ccccc1` has a melting point of 148 °C.
In the case of `Cc1cc(=O)n(-c2ccccc2)n1C`, the boiling point was 319 °C and the melting point was 114 °C.
`CC(Oc1c(Cl)cccc1Cl)C1=NCCN1` (stereo not drawn) showed a melting point of 127 °C.
With `O=C(O)CCCCCCCF` the melting point was 35 °C.
`CC(=O)c1ccc(C)nc1` showed a melting point of 17.6 °C.
Molecule `O=C(Cl)OCc1ccccc1` has a boiling point of 152 °C and a log10 vapour pressure (mmHg) of -2.51.
`CC(C(O)c1ccccc1)N(C)C/C=C/c1ccccc1` (stereo not drawn) gave a melting point of 75 °C.
`CC(=O)CCCCC(C)=O` showed a melting point of 44 °C.
Molecule `Clc1ccc(Oc2ccc(Cl)c(Cl)c2)cc1Cl` has a log10 BCF of 4.51.
With `c1ccc(Nc2ccc(Nc3ccccc3)cc2)cc1` the log10 vapour pressure (mmHg) was -8.2, the ready biodegradability was “not readily biodegradable” and the log10 BCF was 3.12.
`Cc1ccc(C(F)(F)F)cc1` gave a boiling point of 129 °C.
Work on `CC1(C)CC[C@]2(C)CC[C@]3(C)C(=CC[C@@H]4[C@@]5(C)CC[C@H](O)C(C)(C)[C@@H]5CC[C@]43C)[C@@H]2C1` yielded a melting point of 197 °C.
With `CCc1ccncc1` the boiling point was 168 °C, the log10 Henry constant (atm·m³/mol) was -5.07 and the log10 vapour pressure (mmHg) was 0.355. The melting point was -90.5 °C.
